Test results taken from article PMC12470121, “Exploring the Novel Pancreatic Lipase-Inhibitory Peptides in Chlorella pyrenoidosa: Preparation, Purification, Identification, and Molecular Docking” (Foods, 2025).
Values belong to the molecule of their own block, whether it stands above or below them.

What was measured:
pancreatic lipase (PL) [1] = molecular target: T1, pancreatic lipase (PL) (Sus scrofa, UniProt P00591); assay: PL inhibition assay (pNPP substrate); assay type: biochemical, porcine; settings: CPPH-I at 8 mg/mL vs orlistat at 8 µg/mL; p > 0.05
T1 construct: Pancreatic lipase (derived from porcine pancreas); purchased Yuanye Biotech (Shanghai, China); host or cells: porcine pancreas
T1 sequence (P00591 1-450): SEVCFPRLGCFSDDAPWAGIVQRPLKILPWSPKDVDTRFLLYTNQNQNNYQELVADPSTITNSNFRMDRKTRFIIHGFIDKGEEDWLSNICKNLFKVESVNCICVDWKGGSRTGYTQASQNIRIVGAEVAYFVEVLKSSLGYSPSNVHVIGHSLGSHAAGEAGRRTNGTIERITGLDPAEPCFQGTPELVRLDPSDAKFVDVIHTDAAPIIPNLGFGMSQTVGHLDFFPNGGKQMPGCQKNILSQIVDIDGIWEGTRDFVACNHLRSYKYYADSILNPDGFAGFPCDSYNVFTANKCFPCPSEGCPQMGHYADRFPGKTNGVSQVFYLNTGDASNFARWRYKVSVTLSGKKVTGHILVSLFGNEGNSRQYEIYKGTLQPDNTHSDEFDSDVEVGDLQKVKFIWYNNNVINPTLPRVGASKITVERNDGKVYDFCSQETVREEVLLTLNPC
Description: To evaluate the inhibitory activity of the peptide fractions against PL, we conducted experiments according to Zhang et al.. Briefly, a mixture containing 120 μL of PL (10 mg/mL), 40 μL of peptide sample, and 80 μL of 50 mmol/L Tris-HCl buffer (pH 8.0) was incubated at 37 °C for 10 min. Then, 160 μL of 0.8 mmol/L p-nitrophenyl palmitate (pNPP) dissolved in dimethyl sulfoxide was added to initiate the reaction. After incubation at 37 °C for 20 min, the reaction was terminated by heating in a water bath at 100 °C for 5 min, followed by centrifugation to remove precipitated material. The absorbance of 200 μL of the supernatant was measured at 405 nm using a microplate reader (Infinite® 200 PRO, Tecan, Männedorf, Switzerland). For the control group, the peptide sample was replaced with an equal volume of buffer; in the blank group, the PL solution was replaced with buffer. Finally, the activity of PL was calculated using Equation (1). (1) PL activity%=[1−B−b/(A−a)]×100% where A denotes the absorbance of the control group, B the absorbance of the sample group, a the absorbance of the control blank group, and b the absorbance of the sample blank group.

pancreatic lipase (PL) [2] = settings: cited from earlier work
From the text: Their mechanisms of action are closely linked to a high hydrophobic amino acid content. […] Among them, the pancreatic lipase activity of VWTP was better. […] (36.28% pan ...

[3] = test system: intracellular triglyceride accumulation; settings: ref [15]; cited from earlier work
From the text: Their mechanisms of action are closely linked to a high hydrophobic amino acid content.

[4] = molecular target: T2, Pancreatic lipase (derived from porcine pancreas) (porcine) (UniProt P00591)
T2 sequence: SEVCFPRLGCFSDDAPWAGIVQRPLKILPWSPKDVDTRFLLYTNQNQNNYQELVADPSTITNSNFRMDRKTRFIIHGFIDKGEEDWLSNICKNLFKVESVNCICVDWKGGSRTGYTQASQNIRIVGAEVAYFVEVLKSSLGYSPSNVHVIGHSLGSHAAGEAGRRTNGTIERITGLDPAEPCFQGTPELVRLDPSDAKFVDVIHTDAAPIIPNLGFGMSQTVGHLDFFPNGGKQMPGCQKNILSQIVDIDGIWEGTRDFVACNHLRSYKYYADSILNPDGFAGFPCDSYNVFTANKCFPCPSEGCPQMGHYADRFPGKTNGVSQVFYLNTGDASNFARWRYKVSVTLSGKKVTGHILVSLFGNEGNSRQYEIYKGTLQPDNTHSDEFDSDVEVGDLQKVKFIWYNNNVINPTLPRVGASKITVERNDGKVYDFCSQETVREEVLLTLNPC

Molecule: CCCCCCCCCCC[C@@H](C[C@@H]1OC(=O)[C@H]1CCCCCC)OC(=O)[C@H](CC(C)C)NC=O [orlistat]
- PL-I activity compared with orlistat (pancreatic lipase (PL) [1]): no significant difference between CPPH-I and orlistat

Molecule: FYLGYCDY [peptide derived from rice bran fat extract (literature)]
- IC50 (pancreatic lipase (PL) [2]; peptide from rice bran, ref [13], read-out: Pancreatic lipase inhibition IC50): 0.47 ± 0.02 µM

Molecule: LLVVYPWTQR [peptide isolated from Chlorella (literature)]
- Pancreatic lipase inhibition (in words) (pancreatic lipase (PL) [2]; isolated from Chlorella, ref [15]): demonstrated efficacy in inhibiting pancreatic lipase
- Reduction of intracellular triglyceride accumulation (in words) [3]: reducing intracellular triglyceride accumulation

Molecule: SPFWNINAH [oat bran-derived peptide (literature)]
- Pancreatic lipase-inhibitory activity (in words) (pancreatic lipase (PL) [2]; oat bran-derived, ref [14]): activity indicates its promise as an anti-obesity drug

- PL inhibition rate at 2 mg/mL peptide (pNPP hydrolysis, absorbance at 405 nm) [4]: 4.49%
Molecule: IPYPL

- PL inhibition rate at 2 mg/mL peptide (pNPP hydrolysis, absorbance at 405 nm) [4]: 7.64%
Molecule: IVGPF

- PL inhibition rate at 2 mg/mL peptide (pNPP hydrolysis, absorbance at 405 nm) [4]: 11.5%
Molecule: FLSQPF
